Reference: ChEMBL document CHEMBL1201862, “PubChem BioAssay data set” (2004)
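Results reflect a 48-hour exposure of cells in 96-well plates to compound at five concentrations. GI50 is the concentration that inhibits growth by half.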 Calls of active or inactive are those of the source. Cut-off read from the data, not from the text of the source: active = GI50 up to about 1.1 µM and inactive = higher.

Key:
Test in all cases: NCI anticancer screen, dose series, 48 h
786-0 = tested on: 786-0
A549 = tested on: A549
DU-145 = tested on: DU-145
EKVX = tested on: EKVX
HCT-116 = tested on: HCT-116
HOP-92 = tested on: HOP-92
Hs-578T = tested on: Hs-578T
NCI-H23 = tested on: NCI-H23
NCI/ADR-RES = tested on: NCI/ADR-RES
OVCAR-4 = tested on: OVCAR-4
PC-3 = tested on: PC-3
RXF 393 = tested on: RXF 393
SN12C = tested on: SN12C
SNB-19 = tested on: SNB-19
SNB-75 = tested on: SNB-75
T47D = tested on: T47D
UO-31 = tested on: UO-31
CAKI-1 = tested on: CAKI-1
K562 = tested on: K562

| Structure (SMILES) | GI50 (786-0) | GI50 (A549) | GI50 (DU-145) | GI50 (EKVX) | GI50 (HCT-116) | GI50 (HOP-92) | GI50 (Hs-578T) | GI50 (NCI-H23) | GI50 (NCI/ADR-RES) | GI50 (OVCAR-4) | GI50 (PC-3) | GI50 (RXF 393) | GI50 (SN12C) | GI50 (SNB-19) | GI50 (SNB-75) | GI50 (T47D) | GI50 (UO-31) | GI50 (CAKI-1) | GI50 (K562) |
| --- | --- | --- | --- | --- | --- | --- | --- | --- | --- | --- | --- | --- | --- | --- | --- | --- | --- | --- | --- |
| CCN1C=C/C(=C\C=C\c2cc[n+](CC)c3ccccc23)c2ccccc21 | 4.9 µM (inactive) | 3.77 µM (inactive) | 4.92 µM (inactive) | 18.9 µM (inactive) | 2.75 µM (inactive) | 12.4 µM (inactive) | 4.02 µM (inactive) | 2.87 µM (inactive) | 64.4 µM (inactive) | 4.46 µM (inactive) | 4.49 µM (inactive) | 17.3 µM (inactive) | 3.63 µM (inactive) | 4.17 µM (inactive) | 2.64 µM (inactive) | 5.93 µM (inactive) | 15.2 µM (inactive) | – | – |
| NC(=S)SC1=NC(=O)C2(NN1)c1ccccc1-c1ccccc12 | > 10 µM (inactive) | > 10 µM (inactive) | > 10 µM (inactive) | 6.58 µM (inactive) | > 10 µM (inactive) | > 10 µM (inactive) | > 10 µM (inactive) | > 10 µM (inactive) | 6.84 µM (inactive) | > 10 µM (inactive) | > 10 µM (inactive) | > 10 µM (inactive) | > 10 µM (inactive) | > 10 µM (inactive) | > 10 µM (inactive) | 1.67 µM (inactive) | 9.1 µM (inactive) | > 10 µM (inactive) | – |
| COc1ccc(C(c2ccc(OC)cc2)N2C(=O)CCC2C(=O)O)cc1 (centres undefined) | > 100 µM (inactive) | > 100 µM (inactive) | > 100 µM (inactive) | > 100 µM (inactive) | > 100 µM (inactive) | > 100 µM (inactive) | > 100 µM (inactive) | > 100 µM (inactive) | > 100 µM (inactive) | > 100 µM (inactive) | > 100 µM (inactive) | – | > 100 µM (inactive) | > 100 µM (inactive) | > 100 µM (inactive) | > 100 µM (inactive) | > 100 µM (inactive) | > 100 µM (inactive) | > 100 µM (inactive) |
| O=C(O)C(Cc1c[nH]c2ccccc12)N1C(=O)c2ccccc2C1=O (centres undefined) | > 100 µM (inactive) | > 100 µM (inactive) | > 100 µM (inactive) | > 100 µM (inactive) | > 100 µM (inactive) | 0.785 µM (active) | > 100 µM (inactive) | > 100 µM (inactive) | > 100 µM (inactive) | > 100 µM (inactive) | > 100 µM (inactive) | > 100 µM (inactive) | > 100 µM (inactive) | > 100 µM (inactive) | > 100 µM (inactive) | > 100 µM (inactive) | > 100 µM (inactive) | > 100 µM (inactive) | – |
| O=C(c1ccccc1)c1c(C(F)(F)F)[n+]([O-])c2cc(F)c(F)cc2[n+]1[O-] | 0.525 µM (active) | 2.95 µM (inactive) | 0.984 µM (active) | 2.45 µM (inactive) | 0.156 µM (active) | 0.238 µM (active) | 0.942 µM (active) | 0.211 µM (active) | 0.367 µM (active) | 2.07 µM (inactive) | 0.716 µM (active) | 1 µM (active) | – | 4.05 µM (inactive) | 1.95 µM (inactive) | 1.79 µM (inactive) | 1.38 µM (inactive) | 0.807 µM (active) | 0.105 µM (active) |
| C1=CC(=[N+]2N=C(c3ccccc3)CC2c2ccccc2)C=CC1=C1SC(c2ccccc2)(c2ccccc2)c2ccccc21.[O-][Cl+3]([O-])([O-])[O-] (centres undefined) | > 100 µM (inactive) | > 100 µM (inactive) | > 100 µM (inactive) | > 100 µM (inactive) | 93.5 µM (inactive) | 82 µM (inactive) | > 100 µM (inactive) | > 100 µM (inactive) | > 100 µM (inactive) | – | > 100 µM (inactive) | > 100 µM (inactive) | > 100 µM (inactive) | 79.4 µM (inactive) | – | > 100 µM (inactive) | > 100 µM (inactive) | – | > 100 µM (inactive) |
| O=c1[nH]c2cccc([N+](=O)[O-])c2c(=O)n1-c1ccc(Cl)cc1 | 19.8 µM (inactive) | 12.4 µM (inactive) | 15.1 µM (inactive) | 10.8 µM (inactive) | 17.9 µM (inactive) | 18.5 µM (inactive) | 17 µM (inactive) | 20.3 µM (inactive) | 10.4 µM (inactive) | 5.07 µM (inactive) | 16.6 µM (inactive) | 17.1 µM (inactive) | 14 µM (inactive) | 20 µM (inactive) | – | 11 µM (inactive) | – | 2.64 µM (inactive) | 1.48 µM (inactive) |
| CCCC(=O)OC1CC(n2cc(F)c(=O)[nH]c2=O)OC1CO (centres undefined) | 0.342 µM (active) | 0.0538 µM (active) | 0.182 µM (active) | > 10 µM (inactive) | 0.731 µM (active) | – | > 3.19 µM (inactive) | 0.0682 µM (active) | > 2.55 µM (inactive) | > 10 µM (inactive) | 1.48 µM (inactive) | > 5.79 µM (inactive) | 0.317 µM (active) | – | 1.53 µM (inactive) | > 10 µM (inactive) | 0.362 µM (active) | 0.141 µM (active) | 1.74 µM (inactive) |
| O=C(c1ccccc1)N1C(=S)N(c2ccc([N+](=O)[O-])cc2)C(=N/c2ccccc2)/C1=N\c1ccccc1 | > 100 µM (inactive) | 41.9 µM (inactive) | > 100 µM (inactive) | > 100 µM (inactive) | – | > 100 µM (inactive) | > 100 µM (inactive) | > 100 µM (inactive) | > 100 µM (inactive) | – | 40.6 µM (inactive) | > 100 µM (inactive) | > 100 µM (inactive) | > 100 µM (inactive) | 24.4 µM (inactive) | > 100 µM (inactive) | > 100 µM (inactive) | > 100 µM (inactive) | 30.1 µM (inactive) |
| C=C1C(=O)O[C@H]2C[C@@H]1[C@@H](O)[C@H](O)[C@@H](C)CCCC(C)=CCC[C@@]2(C)O | 15.8 µM (inactive) | 35.1 µM (inactive) | 42.7 µM (inactive) | 54 µM (inactive) | 16.1 µM (inactive) | 12.4 µM (inactive) | 18 µM (inactive) | 18.1 µM (inactive) | – | 21.9 µM (inactive) | 19.9 µM (inactive) | 22.7 µM (inactive) | 17 µM (inactive) | > 100 µM (inactive) | 45.5 µM (inactive) | 20.2 µM (inactive) | 14.8 µM (inactive) | 5.06 µM (inactive) | 5.55 µM (inactive) |
| O=[N+]([O-])/C=C/c1cccc(F)c1 | 1.66 µM (inactive) | 4.16 µM (inactive) | 4.47 µM (inactive) | 3.03 µM (inactive) | 0.603 µM (active) | 11.6 µM (inactive) | 3.12 µM (inactive) | 3.48 µM (inactive) | 13.1 µM (inactive) | 3.75 µM (inactive) | 3.01 µM (inactive) | 2.02 µM (inactive) | 17 µM (inactive) | 11.7 µM (inactive) | 13.7 µM (inactive) | 4.88 µM (inactive) | 2.54 µM (inactive) | 12.9 µM (inactive) | – |
| O=C1Nc2ccccc2NC1C1OC(c2ccccc2)=CC1=O (centres undefined) | > 100 µM (inactive) | > 100 µM (inactive) | > 100 µM (inactive) | > 100 µM (inactive) | > 100 µM (inactive) | > 100 µM (inactive) | > 100 µM (inactive) | > 100 µM (inactive) | 82.2 µM (inactive) | > 100 µM (inactive) | > 100 µM (inactive) | > 100 µM (inactive) | – | > 100 µM (inactive) | > 100 µM (inactive) | > 100 µM (inactive) | > 100 µM (inactive) | > 100 µM (inactive) | > 100 µM (inactive) |
| CCn1c(SCC(=O)NNC(=S)NC)nc2ccccc2c1=O | > 100 µM (inactive) | 88.9 µM (inactive) | > 100 µM (inactive) | > 100 µM (inactive) | > 100 µM (inactive) | – | > 100 µM (inactive) | > 100 µM (inactive) | > 100 µM (inactive) | 76.4 µM (inactive) | 96.8 µM (inactive) | 34 µM (inactive) | > 100 µM (inactive) | > 100 µM (inactive) | > 100 µM (inactive) | > 100 µM (inactive) | 62.2 µM (inactive) | 24.1 µM (inactive) | > 100 µM (inactive) |
| COc1cc2c(cc1OC)-c1cc3cc(OC)c(OC)cc3c(C)[n+]1CC2.O=C([O-])CS(=O)(=O)O | > 100 µM (inactive) | > 100 µM (inactive) | > 100 µM (inactive) | > 100 µM (inactive) | 73.5 µM (inactive) | 95.9 µM (inactive) | > 100 µM (inactive) | 35.4 µM (inactive) | > 100 µM (inactive) | > 100 µM (inactive) | 15.9 µM (inactive) | > 100 µM (inactive) | 37.6 µM (inactive) | 41.7 µM (inactive) | – | 2.82 µM (inactive) | > 100 µM (inactive) | > 100 µM (inactive) | – |
| Cc1coc2c1[C@@H](O)[C@@]1(C)[C@H](CCC[C@@H]1C)C2 | 34.8 µM (inactive) | – | 37 µM (inactive) | 69 µM (inactive) | 33.5 µM (inactive) | 51.2 µM (inactive) | 61.7 µM (inactive) | 50.9 µM (inactive) | 24.8 µM (inactive) | 58.7 µM (inactive) | 36.5 µM (inactive) | 18.2 µM (inactive) | 24.7 µM (inactive) | 72.9 µM (inactive) | – | 31.4 µM (inactive) | – | 72.6 µM (inactive) | 26.9 µM (inactive) |
| CC1C2CC(C/C2=N/O)C1(C)C (centres undefined) | > 100 µM (inactive) | > 100 µM (inactive) | > 100 µM (inactive) | > 100 µM (inactive) | > 100 µM (inactive) | > 100 µM (inactive) | > 100 µM (inactive) | > 100 µM (inactive) | – | > 100 µM (inactive) | > 100 µM (inactive) | > 100 µM (inactive) | > 100 µM (inactive) | > 100 µM (inactive) | > 100 µM (inactive) | > 100 µM (inactive) | > 100 µM (inactive) | > 100 µM (inactive) | > 100 µM (inactive) |
